According to US11738029B2, “Rucaparib particles and uses thereof” (CRITITECH, INC., priority 2021, dated 2023):

Tests used:
Type in all cases: physicochemical
[1] = Bulk density analysis by modified USP <616> Bulk Density of Powders Method I (bulk and tapped)
Description: As used herein, the bulk density (not tapped) of a particle is the ratio of the mass to the volume (including the interparticulate void volume) of an untapped powder sample.
As used herein, the tapped density of a particle is obtained by mechanically tapping a graduated cylinder containing the sample until little further volume change is observed.
(§1) • Particle Size Distribution (PSD) by Laser Diffraction • Imaging by Scanning Electron Microscopy (SEM) • Specific Surface Area (SSA) determination by BET Sorptometry • Crystalline/amorphous phase determination by Powder X-ray Diffraction (PXRD) • Bulk density analysis by modified USP <616>Bulk Density of Powders Method I

[2] = Solubility testing, shake-flask method; conditions: 24 hours at 20-25° C.
Procedure: The solubility was determined by using a shake-flask method. The drug was added in excess to each solution prepared in duplicate. The vials were placed on a mechanical shaker for 24 hours at 20-25° C. After shaking, solution was removed and filtered through a 0.45 μm PTFE syringe filter and analyzed by UV/Visible spectrophotometry.

[3] = Particle size distribution (PSD) by laser diffraction, Malvern Mastersizer 3000; conditions: dispersed in ethyl acetate
Procedure: as §1
Particle size analyses were conducted on a Malvern Mastersizer™ 3000 using the Hydro MV™ dispersion unit. A non-validated general PSD method/dispersant method was used to analyze the rucaparib samples. The sample preparation procedure performed was as follows: • Weigh 10 to 20 mg of rucaparib into a 30-mL vial, add 20 mL of ethyl acetate. Disperse the sample by vortexing then sonicating the suspension in an ultrasonic bath for 1 minute. Then transfer the sample suspension to the Malvern Hydro MV™ dispersion unit to obtain obscuration between 5 and 15%.
Particle size distributions can be viewed in Table 1.

[4] = Specific surface area (SSA) by BET sorptometry
Procedure: As used herein, the “specific surface area” is the total surface area of the rucaparib particle per unit of rucaparib mass as measured by the Brunauer-Emmett-Teller (“BET”) isotherm (i.e.: the BET SSA). As will be understood by those of skill in the art, the SSA is determined on a per gram basis and takes into account both agglomerated and non-agglomerated rucaparib particles in the composition. The BET specific surface area test procedure is a compendial method included in both the United States Pharmaceopeia and the European Pharmaceopeia. The rucaparib particles have a specific surface area (SSA) of at least 12 m^2/g. In various further embodiments, the rucaparib particles have a SSA of at least 13 m^2/g, 14 m^2/g, 15 m^2/g, 16 m^2/g, 17 m^2/g, 18 m^2/g, 19 m^2/g, 20 m^2/g, 21 m^2/g, 22 m^2/g, 23 m^2/g, 24 m^2/g, 25 m^2/g, 26 m^2/g, 27 m^2/g, 28 m^2/g, 29 m^2/g, or 30 m^2/g.
as §1
Specific Surface Area Surface area analyses were conducted on a Quantachrome NOVAtouch™ LX2 BET Sorptometer. Surface area results can be found in Table 1.

- Bulk Density ([1]; not tapped): 0.332 gm/cm^3
- Tapped Density ([1]; tapped): 0.427 gm/cm^3
- Concentration of Rucaparib Found ([2]; 25% ethanol): 115 µg/mL
- Concentration of Rucaparib Found ([2]; 25% methanol): 68.8 µg/mL
- Concentration of Rucaparib Found ([2]; 40% ethanol): 394 µg/mL
- Concentration of Rucaparib Found ([2]; 40% methanol): 739 µg/mL
- PSD - Masterisizer Dv-10 [3]: 2.96 μ
- PSD - Masterisizer Dv-50 [3]: 13.6 μ
- PSD - Masterisizer Dv-90 [3]: 26.8 μ
- Surface Area ([4]; BET): 6.59 m^2/gm
- specific surface area measurement ([4]; material used in dissolution testing): 6.59 m2/g
SMILES: CNCc1ccc(-c2[nH]c3cc(F)cc4c3c2CCNC4=O)cc1 [Rucaparib, (8-fluoro-2-{4-[(methylamino)methyl]phenyl}-1,3,4,5-tetrahydro-6H-azepino[5,4,3-cd]indol-6-one ((1S,4R)-7,7-dimethyl-2-oxobicyclo[2.2.1]hept-1-yl)]
